Key:
[1] = tested on: CV-1P (African monkey green kidney fibroblasts cells); assay: In vitro transfection of plasmid DNA, β-galactosidase activity per well; assay type: cell-based; conditions: CVI-P; for transfection, result in words: entry spans the charge ratios 8-0.5
Procedure, shortened: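 CV-1P cells (20 000/well) given compound/DNA complexes at various charge ratios, prepared in 50 mM MES–50 mM HEPES–75 mM NaCl pH 7.2, 0.6 μg DNA/well, for 5 h at 37 °C, then 45 h in growth medium. Lysates assayed for β-galactosidase via oNPG hydrolysis at 405 nm against an E. coli enzyme standard; efficiency expressed as percent of Lipofectin.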

[2] = tested on: CVI-P cells; assay: Cytotoxicity of amphiphile/DNA complexes, percentage of survived cells; conditions: for cell viable: 'at +/−', charge ratio not given
[3] = tested on: plasmid DNA; assay: DNA condensation/complexation, EtBr displacement assay; assay type: binding
Procedure, shortened: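 Plasmid DNA (0.6 μg/well) was mixed with 0.002% EtBr in 20 mM HEPES–150 mM NaCl pH 7.4, then cationic liposomes were added at various +/− charge ratios.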

[4] = tested on: D407 (human retinal pigment epithelial) cells; assay: In vitro transfection of plasmid DNA, β-galactosidase activity per well; assay type: cell-based; conditions: D 407
Description: Transfer of plasmid DNA by various compounds was investigated by using CV-1P (African monkey green kidney fibroblasts cells) and D407 (human retinal pigment epithelial) cells.
The cells were cultured in Dulbecco's modified Eagle's medium (DMEM, Gibco), supplemented with 10% fetal bovine serum (FBS), penicillin/streptomycin (100 units/ml and 100 μg/ml respectively) and 2 mM L-glutamine for D 407 cell line. Cell cultures were maintained at 37° C. in a 7% CO2/air incubator. The cells were collected, counted and seeded in growth medium (100 μl) into 96-well culture plate, 20 000 cells per well. One day later the medium was replaced with fresh medium without serum (150 μl)
The complexes at different derivative/DNA charge ratios for transfection procedure were prepared just before use in 50 mM MES—50 mM HEPES—75 mM NaCl buffer, pH 7.2 in separate 96 well plates. One hour after changing the serum-free medium with 10% serum the complexes were added to the cells at 370C. Dose of DNA per well was 0.6 μg. After 5 h the complexes were removed, the cells were washed with PBS, and the normal growth medium was added. After 45 h of incubation at 37° C. the cells were lysed with 2% Triton X 100, twice deep frozen and the β-galactosidase activity in each well was determined spectrofotometrically with ELx800 automated microplate reader (Bio-Tex Instruments Inc., Winooski, Vt. USA) by monitoring the hydrolysis of o-nitrophenylgalactopyranoside (oNPG) at 405 nm. Purified β-galactosidase from E.coli was used to construct a standard curve and to calculate 9-galactosidase activity in the transfected cells. […] Transfection efficiencies are given as percentage in comparison to transfection efficiency of Lipofectin^R.

[5] = tested on: D 407 cells; assay: Cytotoxicity of amphiphile/DNA complexes, percentage of survived cells; assay type: cell-based, human; set-up: concentration or dose not given beside the values
[6] = amphiphile/DNA +/− charge ratio 0.5
[7] = amphiphile/DNA +/− charge ratio 1
[8] = amphiphile/DNA +/− charge ratio 2
[9] = amphiphile/DNA +/− charge ratio 4
[10] = amphiphile/DNA +/− charge ratio 8

| melting point | complexation, percentage of the maximum fluorescence signal when EtBr bound to DNA in the absence of an amphiphile [3, 6] | complexation, percentage of the maximum fluorescence signal when EtBr bound to DNA in the absence of an amphiphile [3, 7] | complexation, percentage of the maximum fluorescence signal when EtBr bound to DNA in the absence of an amphiphile [3, 8] | complexation, percentage of the maximum fluorescence signal when EtBr bound to DNA in the absence of an amphiphile [3, 9] | complexation, percentage of the maximum fluorescence signal when EtBr bound to DNA in the absence of an amphiphile [3, 10] | Compound | transfection, result in words [1] | cytotoxicity as a percentage of survived cells [2, 6] | cytotoxicity as a percentage of survived cells [2, 7] | cytotoxicity as a percentage of survived cells [2, 8] | cytotoxicity as a percentage of survived cells [2, 9] | cytotoxicity as a percentage of survived cells [2, 10] | cell viable [2] | further results |
| --- | --- | --- | --- | --- | --- | --- | --- | --- | --- | --- | --- | --- | --- | --- |
| 140 to 141 °C (dec.) | 88,0% | 81,94% | 76,4% | 71,5% | 66,31% | CCCCCCCCCCCCCCCCOC(=O)C1=C(C)NC(C)=C(C(=O)OCCCCCCCCCCCCCCCC)C1c1ccc[n+](CC(N)=O)c1.I.[I-] [XX, 1-Carbamoylmethyl-3′,5′-bis(hexadecyloxycarbonyl)-1′,4′-dihydro-2′,6′-dimethyl-3,4′-bipyridinium iodide] | No signal | 100,59% | 110,76% | 59,96% | 71,98% | 92,09% | – | – |
| 156 to 159 °C | – | – | – | – | – | CC1=C(C(=O)OC2CC(C)CCC2C(C)C)C(c2ccc[n+](C)c2)C(C(=O)OC2CC(C)CCC2C(C)C)=C(C)N1.I.[I-] (centres unmarked) [X, 1′,4′-Dihydro-3′,5′-bis(menthyloxycarbonyl)-1,2′,6′-trimethyl-3,4′-bipyridinium iodide] | No signal | – | – | – | – | – | 50% | – |
| 143 to 146 °C | 93,2% | 83,2% | 76,7% | 74,6% | 74,7% | CCCCCCCCCCCCCCCC(=O)OCCCOC(=O)C1=C(C)NC(C)=C(C(=O)OCCCOC(=O)CCCCCCCCCCCCCCC)C1c1ccc[n+](C)c1.I.[I-] [III, 1′,4′-Dihydro-1,2′,6′-trimethyl-3′,5′-bis[(3-palmitoyloxypropoxy)carbonyl]-3,4′-bipyridinium iodide] | No signal | 87,86% | 81,86% | 72,04% | 54,84% | 68,47% | – | – |
| 114 to 115 °C | 93,25% | 84,75% | 78,9% | 74,85% | 71,05% | CCCCCCCCCCCCCCOC(=O)C1=C(C)NC(C)=C(C(=O)OCCCCCCCCCCCCCC)C1c1ccc[n+](C)c1.I.[I-] [VI, 1′,4′-Dihydro-1,2′,6′-trimethyl-3′,5′-bis(tetradecyloxycarbonyl)-3,4′-bipyridinium iodide] | – | 94,05% | 89,46% | 90,38% | 45,6% | 7,52% | – | transfection efficiency [1, 6]: 0,81 β-galactosidase units per well; transfection efficiency [1, 7]: 0,82 β-galactosidase units per well; transfection efficiency [1, 8]: 4,82 β-galactosidase units per well; transfection efficiency [1, 9]: 2,16 β-galactosidase units per well; transfection efficiency [1, 10]: 1,27 β-galactosidase units per well; transfection efficiency [4, 6]: 0,53 β-galactosidase units per well; transfection efficiency [4, 7]: 16,56 β-galactosidase units per well; transfection efficiency [4, 8]: 35,6 β-galactosidase units per well; transfection efficiency [4, 9]: 1,21 β-galactosidase units per well; transfection efficiency [4, 10]: 1,08 β-galactosidase units per well; cytotoxicity as a percentage of survived cells [5, 6]: 98,6%; cytotoxicity as a percentage of survived cells [5, 7]: 94,43%; cytotoxicity as a percentage of survived cells [5, 8]: 79,12%; cytotoxicity as a percentage of survived cells [5, 9]: 12,13%; cytotoxicity as a percentage of survived cells [5, 10]: 5,11% |
| 124 to 126 °C (dec.) | 100% | 96,2% | 91,03% | 88,9% | 93,7% | Br.CCCCCCCCCCCCCCOC(=O)C1=C(C)NC(C)=C(C(=O)OCCCCCCCCCCCCCC)C1c1ccc[n+](CCCCCCCCC)c1.[Br-] [XIV, 1′,4′-Dihydro-2′,6′-dimethyl-1-nonyl-3′,5′-bis(tetradecyloxycarbonyl)-3,4′-bipyridinium bromide] | – | 103,98% | 93,16% | 51,04% | 34,5% | 44,62% | – | transfection efficiency [1, 6]: 0,75 β-galactosidase units per well; transfection efficiency [1, 7]: 3,38 β-galactosidase units per well; transfection efficiency [1, 8]: 1,5 β-galactosidase units per well |
| 271 to 274 °C | – | – | – | – | – | CC1=C(C(=O)OC2CC3CCC2(C)C3(C)C)C(c2ccc[n+](C)c2)C(C(=O)OC2CC3CCC2(C)C3(C)C)=C(C)N1.I.[I-] (centres unmarked) [XI, 3′,5′-Bis(bornyloxycarbonyl)-1′,4′-dihydro-1,2′,6′-trimethyl-3,4′-bipyridinium iodide] | No signal | – | – | – | – | – | 50% | – |
| 142 to 143 °C (dec.) | – | – | – | – | – | Br.CCCCCCCCC[n+]1cccc(C2C(C(=O)OCC)=C(C)NC(C)=C2C(=O)OCC)c1.[Br-] [XIII, 3′,5′-Bis(ethoxycarbonyl)-1′,4′-dihydro-2′,6′-dimethyl-1-nonyl-3,4′-bipyridinium bromide] | No signal | – | – | – | – | – | – | – |

| Compound | melting point | complexation, percentage of the maximum fluorescence signal when EtBr bound to DNA in the absence of an amphiphile [3, 6] | complexation, percentage of the maximum fluorescence signal when EtBr bound to DNA in the absence of an amphiphile [3, 7] | complexation, percentage of the maximum fluorescence signal when EtBr bound to DNA in the absence of an amphiphile [3, 8] | complexation, percentage of the maximum fluorescence signal when EtBr bound to DNA in the absence of an amphiphile [3, 9] | complexation, percentage of the maximum fluorescence signal when EtBr bound to DNA in the absence of an amphiphile [3, 10] | transfection, result in words [1] | cytotoxicity as a percentage of survived cells [2, 6] | cytotoxicity as a percentage of survived cells [2, 7] | cytotoxicity as a percentage of survived cells [2, 8] | cytotoxicity as a percentage of survived cells [2, 9] | cytotoxicity as a percentage of survived cells [2, 10] | cell viable [2] | further results |
| --- | --- | --- | --- | --- | --- | --- | --- | --- | --- | --- | --- | --- | --- | --- |
| Br.CCCCCCCCCCCCCCCC[n+]1cccc(C2C(C(=O)OCCCCCCCCCCCCCC)=C(C)NC(C)=C2C(=O)OCCCCCCCCCCCCCC)c1.[Br-] [XVII, 1-Hexadecyl-1′,4′-dihydro-2′,6′-dimethyl-3′,5′-bis(tetradecyloxycarbonyl)-3,4′-bipyridinium bromide] | 133 to 135 °C | 104,4% | 97,9% | 95,1% | 97% | 96,5% | No signal | 105,14% | 85,31% | 88,20% | 67,45% | 97,34% | – | – |
| Br.CCCCCCCCCCCCCCCC[n+]1cccc(C2C(C(=O)OCC)=C(C)NC(C)=C2C(=O)OCC)c1.[Br-] [XV, 3′,5′-Bis (ethoxycarbonyl)-1-hexadecyl-1′,4′-dihydro-2′,6′-dimethyl-3,4′-bipyridinium bromide] | 135 to 136 °C | – | – | – | – | – | No signal | – | – | – | – | – | – | – |
| Br.CCCCCCCCCCCCCCCC[n+]1cccc(C2C(C(=O)OCCOCCC)=C(C)NC(C)=C2C(=O)OCCOCCC)c1.[Br-] [XVI, 1-Hexadecyl-1′,4′-dihydro-2′,6′-dimethyl-3′,5′-bis[(2-propoxyethoxy)carbonyl]-3,4′-bipyridinium bromide] | 93 to 96 °C | – | – | – | – | – | No signal | – | – | – | – | – | 50% | – |

Reference: patent US20030064954A1, “Cationic amphiphilic 1,4-dihydropyridine derivatives useful for delivery of nucleotide containing compounds” (priority 2000, published 2003)
